Results as given in patent publication US20200282010A1, “IMMUNOGENIC COMPOSITIONS AND USES THEREFOR” (Epiaxis Therapeutics Pty Ltd, priority 2017, published 2020).

Assays:
[1] = test system: CD8^+ T-cells isolated from melanoma patient's bloods; test: Immunofluorescence of IFN-γ and TNF-α in patient CD8+ T-cells; assay type: cell-based, human; details: across all samples, particularly the stimulated samples; inhibitor 8 μm; FIG. 3
Procedure: FIG. 3 is a photographic representation depicting a PKC-θ resistance signature in CD8^+ T-cells. A-B) CD8s were isolated from melanoma patient liquid biopsies (CR=complete response, SD=Stable Disease, PD=progression of disease) and were stimulated with PMA/CI and pre-clinically screened with either vehicle control or PKCθi nuclear peptide inhibitor. Samples were fixed and immunofluorescence microscopy was performed on these cells with primary antibodies for ZEB1, PKC-θ, and CD8. Representative images for each dataset are shown. Graph represents the TNFI for PKC-Theta and TNFI for ZEB1 measured using ImageJ to select the nucleus minus background (n=>20 cells/sample). […] Graph represents the TNFI for TNF-α and TNFI for IFN-γ measured using ImageJ to select the nucleus minus background (n=>20 cells/sample). […]
Metastatic melanoma biopsies were pre-enriched using the RosetteSep™ method to isolate CTCs by employing the RosetteSep™ Human CD45 Depletion Kit (15162, Stemcell Technologies) to remove CD45+ cells and red blood cells, using density gradient centrifugation with SepMate™-50 (IVD) density gradient tubes (85450, Stemcell Technologies) and Lymphoprep™ density gradient medium (07861, Stemcell Technologies). […] Digital images were analysed using ImageJ software (ImageJ, NIH, Bethesda, Md., USA) to determine TNFI, TCFI or TFI. […]

[2] = target: T1, PKC-θ (T538p) (Homo sapiens, UniProt Q04759); test: Nuclear localization of PKC-θ (Fn/c, immunofluorescence) in cells treated with peptide inhibitor; assay type: cell-based; details: MCF7 breast cancer cell line; FIG. 1D
T1 construct: endogenous in cells; host or cells: MCF7
T1 sequence (Q04759 whole entry): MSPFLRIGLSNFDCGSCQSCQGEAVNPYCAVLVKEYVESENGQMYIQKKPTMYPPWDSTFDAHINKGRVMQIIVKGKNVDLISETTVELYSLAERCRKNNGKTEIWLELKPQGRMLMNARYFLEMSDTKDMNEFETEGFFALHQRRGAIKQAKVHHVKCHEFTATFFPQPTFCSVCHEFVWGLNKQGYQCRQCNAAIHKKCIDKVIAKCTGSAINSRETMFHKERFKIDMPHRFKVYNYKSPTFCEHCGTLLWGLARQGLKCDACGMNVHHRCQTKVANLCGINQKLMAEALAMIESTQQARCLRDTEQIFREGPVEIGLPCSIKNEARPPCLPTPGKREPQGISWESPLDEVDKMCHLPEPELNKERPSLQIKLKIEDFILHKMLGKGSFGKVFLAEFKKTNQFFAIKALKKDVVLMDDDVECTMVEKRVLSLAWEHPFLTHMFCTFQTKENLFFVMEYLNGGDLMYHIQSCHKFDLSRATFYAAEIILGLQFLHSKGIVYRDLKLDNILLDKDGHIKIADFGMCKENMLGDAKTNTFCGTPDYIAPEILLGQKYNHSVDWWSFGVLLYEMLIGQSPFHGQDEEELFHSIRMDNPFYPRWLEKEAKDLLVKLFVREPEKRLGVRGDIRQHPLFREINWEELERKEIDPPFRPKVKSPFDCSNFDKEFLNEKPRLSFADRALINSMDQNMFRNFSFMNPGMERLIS
From the text: FIG. 1 is a graphical, schematic and photographic representation showing that PKC-θ can be targeted for therapeutic intervention. A) Depicts the strength of binding of recombinant purified His6-PKC-θ to increasing concentrations of different subunits and subunit combinations (α2, α2β1, and β1) of the importin α/β heterodimer nuclear transport receptor using an AlphaScreen® binding assay as described in Wagstaff et al. (2011. Journal of Biomolecular Screening 16 (2):192-200). B-C) Depicts protein structure of PKC-θ indicating binding locations for the PKC-θ peptide inhibitor, PKCθi (RKEIDPPFRPKVK), including the nuclear localization sequence (NLS) of PKC-θ. D) The specificity of PKCθi was examined on cells treated with this peptide inhibitor. Cells were screened with primary antibodies to PKC-θ (T538p), PKC-β2, PKC-β1, PKC-α, PKC-ε and PKC-γ. The nuclear to cytoplasmic fluorescence ratio (Fn/c) using the equation: Fn/c=(Fn−Fb)/(Fc−Fb), where Fn is nuclear fluorescence, Fc is cytoplasmic fluorescence, and Fb is background fluorescence was used to determine the impact on nuclear translocation/localization. […] EC^50 of inhibitors calculated using GraphPad PRISM software. F) The PKC-θ kinase activity was measured using the PKC kinase activity kit from ENZO life sciences and recombinant PKC-θ; C27 is an inhibitor of PKC-θ kinase activity, which is disclosed in Jimenez et al. (2013. […]

- nuclear localization of PKC-θ [2]: markedly inhibit
Sequence: RKEIDPPFRPKVK [PKCθi]
- expression of IFN-γ [1]: significant increase
- expression of TNF-α [1]: significant increase
